# Tests used:
# HL-60 [1] = assay: Cytotoxicity against human HL-60 derived macrophage-like cells at 50 uM after 1 hr by MTT assay; type: cell-based; details: hl-60, 1 h
# HL-60 [2] = assay: Antiinflammatory activity in human HL-60 derived macrophage-like cells assessed as inhibition of LPS-induced IL-6 production treated 30 mins before LPS stimulation measured after 24 hrs by ELISA; type: functional, cell-based
# HL-60 [3] = assay: Antiinflammatory activity in human HL-60 derived macrophage-like cells assessed as inhibition of LPS-induced IL-6 production at 50 uM treated 30 mins before LPS stimulation measured after 24 hrs by ELISA; type: functional
# HL-60 [4] = assay: Antiinflammatory activity in human HL-60 derived macrophage-like cells assessed as inhibition of LPS-induced TNFalpha production treated 30 mins before LPS stimulation measured after 24 hrs by ELISA; type: functional, cell-based
# HL-60 [5] = assay: Antiinflammatory activity in human HL-60 derived macrophage-like cells assessed as inhibition of LPS-induced TNFalpha production at 50 uM treated 30 mins before LPS stimulation measured after 24 hrs by ELISA; type: functional
Structure (SMILES),Activity (HL-60 [1]),IC50 (HL-60 [2]),inhibition at 50 µM (HL-60 [3]),IC50 (HL-60 [4]),inhibition at 50 µM (HL-60 [5])
Cc1cccc(-c2nc(N)c3nc4c(Cl)ccc(Cl)c4nc3n2)c1,0.2%,25.7 µM,95.1%,6 µM,100%
Nc1nc(-c2ccccc2)nc2nc3c(Cl)ccc(Cl)c3nc12,13%,34.4 µM,73.8%,35.9 µM,75.2%
Nc1ccc(-c2nc(N)c3nc4c(Cl)ccc(Cl)c4nc3n2)cc1,15.7%,25.7 µM,85.1%,36.2 µM,63.2%
Nc1nc(-c2cc(C(F)(F)F)cc(C(F)(F)F)c2)nc2nc3c(Cl)ccc(Cl)c3nc12,0%,22.9 µM,100%,7.3 µM,99.7%
Nc1nc(-c2ccc(C(F)(F)F)cc2)nc2nc3c(Cl)ccc(Cl)c3nc12,0%,35.4 µM,83%,8.7 µM,67.2%
Cc1ccc(-c2nc(N)c3nc4c(Cl)ccc(Cl)c4nc3n2)cc1,3.9%,25.2 µM,95.4%,7.4 µM,87.4%
C[S+]([O-])c1ccc(-c2nc(-c3ccncc3)c(-c3ccc(F)cc3)[nH]2)cc1 (stereo unspecified) [SB-203580],0%,,8.4%,8.6 µM,68.1%
Nc1nc(-c2ccc(Cl)cc2)nc2nc3c(Cl)ccc(Cl)c3nc12,2.5%,46.9 µM,54.3%,,6.7%
Cc1ccc(-c2nc(N)c3nc4c(Cl)ccc(Cl)c4nc3n2)cc1F,1.8%,26.5 µM,93%,5.8 µM,80%
Nc1nc(-c2cccc([N+](=O)[O-])c2)nc2nc3c(Cl)ccc(Cl)c3nc12,1.5%,,41.3%,,0%
